Measured values published in patent US20170291905A1, “ARGININE […] INHIBITORS AND USES THEREOF” (Epizyme, Inc., priority 2014, published 2017).

Target: T1, PRMT1 (Homo sapiens, UniProt Q99873)
T1 construct: host or cells: RKO cells
Test: RKO methylation assay, In Cell Western (ICW) for mono-methyl arginine and DNA content
Assay type: cell-based
Conditions: RKO cells, 72 hours, mono-methyl arginine signal normalised to DRAQ5, percent activation
Source text: RKO Methylation Assay RKO adherent cells were purchased from ATCC (American Type Culture Collection), Manassas, Va., USA. DMEM/Glutamax medium, penicillin-streptomycin, heat inactivated fetal bovine serum, 0.05% trypsin and D-PBS were purchased from Life Technologies, Grand Island, N.Y., USA. Odyssey blocking buffer, 800CW goat anti-rabbit IgG (H+L) antibody, and Licor Odyssey infrared scanner were purchased from Licor Biosciences, Lincoln, Nebr., USA. Mono-methyl arginine antibody was purchased from Cell Signaling Technology, Danvers, Mass., USA. Methanol was purchased from VWR, Franklin, Mass., USA. 10% Tween 20 was purchased from KPL, Inc., Gaithersburg, Md., USA. DRAQ5 was purchased from Biostatus Limited, Leicestershire, UK. RKO adherent cells were maintained in growth medium (DMEM/Glutamax medium supplemented with 10% v/v heat inactivated fetal bovine serum and 100 units/mL penicillin-streptomycin) and cultured at 37° C. under 5% CO2. Cell Treatment, in Cell Western (ICW) for Detection of Mono-Methyl Arginine and DNA Content. RKO cells were seeded in assay medium at a concentration of 20,000 cells per mL to a poly-D-lysine coated 384 well culture plate (BD Biosciences 356697) with 50 μL per well. Compound (100 nL) from a 96-well source plate was added directly to 384 well cell plate. Plates were incubated at 37° C., 5% CO2 for 72 hours. After three days of incubation, plates were brought to room temperature outside of the incubator for ten minutes and blotted on paper towels to remove cell media. 50 μL of ice cold 100% methanol was added directly to each well and incubated for 30 min at room temperature. After 30 min, plates were transferred to a Biotek EL406 plate washer and washed 2 times with 100 μL per well of wash buffer (1×PBS). Next 60 μL per well of Odyssey blocking buffer (Odyssey Buffer with 0.1% Tween 20 (v/v)) were added to each plate and incubated 1 hour at room temperature. Blocking buffer was removed and 20 μL per well of primary antibody was added (mono-methyl arginine diluted 1:200 in Odyssey buffer with 0.1% Tween 20 (v/v)) and plates were incubated overnight (16 hours) at 4° C. Plates were washed 5 times with 100 μL per well of wash buffer. Next 20 μL per well of secondary antibody was added (1:200 800CW goat anti-rabbit IgG (H+L) antibody, 1:1000 DRAQ5 (Biostatus limited) in Odyssey buffer with 0.1% Tween 20 (v/v)) and incubated for 1 hour at room temperature. The plates were washed 5 times with 100 μL per well wash buffer then 2 times with 100 μL per well of water. Plates were allowed to dry at room temperature then imaged on the Licor Odyssey machine which measures integrated intensity at 700 nm and 800 nm wavelengths. Both 700 and 800 channels were scanned. […] Each plate included fourteen control wells of DMSO only treatment (minimum activation) as well as fourteen control wells for maximum activation treated with 20 μM of a reference compound. The average of the ratio values for each control type was calculated and used to determine the percent activation for each test well in the plate. Reference compound was serially diluted three-fold in DMSO for a total of nine test concentrations, beginning at 20 μM. Percent activation was determined and EC30 curves were generated using triplicate wells per concentration of compound.

T1 sequence (Q99873 whole entry): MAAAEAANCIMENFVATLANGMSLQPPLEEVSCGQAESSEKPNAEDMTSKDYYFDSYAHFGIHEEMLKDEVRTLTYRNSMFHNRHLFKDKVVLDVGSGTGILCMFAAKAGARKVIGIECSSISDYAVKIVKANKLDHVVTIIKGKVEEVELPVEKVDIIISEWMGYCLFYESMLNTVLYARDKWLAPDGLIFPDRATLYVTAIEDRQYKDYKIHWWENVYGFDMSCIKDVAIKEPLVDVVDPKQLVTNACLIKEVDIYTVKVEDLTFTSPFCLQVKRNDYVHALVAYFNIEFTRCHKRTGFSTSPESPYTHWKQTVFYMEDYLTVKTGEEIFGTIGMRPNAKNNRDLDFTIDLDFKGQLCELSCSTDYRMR

Structure (SMILES) | PRMT1 RGG ICW EC30
CC[C@]12CC[C@](CC)(C[C@@H](c3n[nH]cc3CN(C)CCNC)C1)O2 [compound 38, N1-((3-((1R,3s,5S)-1,5-diethyl-8-oxabicyclo[3.2.1]octan-3-yl)-1H-pyrazol-4-yl)methyl)-N1,N2-dimethylethane-1,2-diamine] | >5000 nM
CNCCN(C)Cc1ccnn1[C@H]1CC[C@]2(CC1)CC(C)(C)CO2 [compound 50, N1-((1-((5r,8r)-3,3-dimethyl-1-oxaspiro[4.5]decan-8-yl)-1H-pyrazol-5-yl)methyl)-N1,N2-dimethylethane-1,2-diamine] | 321.2 nM
Cc1[nH]nc([C@H]2CC[C@]3(CC2)CC(C)(C)CO3)c1CN(C)CCN [compound 52, N1-((3-((5r,8r)-3,3-dimethyl-1-oxaspiro[4.5]decan-8-yl)-5-methyl-1H-pyrazol-4-yl)methyl)-N1-methylethane-1,2-diamine] | 373.6 nM
CNCCN(C)Cc1c(C)[nH]nc1[C@H]1CC[C@@]2(CC1)CC(C)(C)CO2 [compound 57] | 40.32 nM
CNCCN(C)Cc1c(C)[nH]nc1[C@H]1CC[C@]2(CC1)CC(C)(C)CO2 [compound 58] | 83.34 nM
Cc1[nH]nc(C2CCC3(CC2)CC(C)(C)CO3)c1CN(C)CCN (stereo not drawn) [compound 59] | 193.1 nM
CCOCC1(COCC)CC=C(c2n[nH]cc2CN(C)CCNC)CC1 [compound 60] | 44.67 nM
CNCCN(C)Cc1scnc1[C@H]1CC[C@@]2(CC1)CC(C)(C)CO2 [compound 62] | 6.96 nM
CNCCN(C)Cc1nn(C)nc1[C@H]1CC[C@@]2(CC1)CC(C)(C)CO2 [compound 64] | 119 nM
CNCCN(C)Cc1nn[nH]c1[C@H]1CC[C@@]2(CC1)CC(C)(C)CO2 [compound 67] | 33.9 nM
CNCCN(C)Cc1cncn1[C@H]1CC[C@@]2(CC1)CC(C)(C)CO2 [compound 76] | 389.4 nM
CNCCN(C)Cc1nc(C)sc1[C@H]1CC[C@@]2(CC1)CC(C)(C)CO2 [compound 77] | 53.11 nM
CNCCN(C)Cc1sc(C)nc1[C@H]1CC[C@@]2(CC1)CC(C)(C)CO2 [compound 78] | 29.59 nM
CN(CCN)Cc1nn(C)cc1[C@H]1CC[C@@]2(CC1)CC(C)(C)CO2 [compound 80] | 61.59 nM
CNCCN(C)Cc1nn(C)cc1[C@H]1CC[C@@]2(CC1)CC(C)(C)CO2 [compound 81] | 95.94 nM
CNCCN(C)Cc1ncsc1[C@H]1CC[C@@]2(CC1)CC(C)(C)CO2 [compound 83] | 57.96 nM
CNCCN(C)Cc1scnc1[C@H]1CC[C@]2(CC1)CC(C)(C)CO2 [compound 84] | 54.69 nM
CNCCN(C)Cc1nn(C)nc1C1CCC2(CC1)CC(C)(C)CO2 (stereo not drawn) [compound 86] | 443.6 nM
CNCCN(C)Cc1nn[nH]c1[C@H]1CC[C@]2(CC1)CC(C)(C)CO2 [compound 89] | 760.4 nM
CNCCN(C)Cc1c(Cl)ncn1[C@H]1CC[C@]2(CC1)CC(C)(C)CO2 [compound 97] | >10000 nM
CNCCN(C)Cc1nc(C)sc1[C@H]1CC[C@]2(CC1)CC(C)(C)CO2 [compound 99] | 95.53 nM
CNCCN(C)Cc1sc(C)nc1[C@H]1CC[C@]2(CC1)CC(C)(C)CO2 [compound 100] | 75.86 nM
CN(CCN)Cc1nn(C)cc1[C@H]1CC[C@]2(CC1)CC(C)(C)CO2 [compound 102] | 446.7 nM
CNCCN(C)Cc1nn(C)cc1[C@H]1CC[C@]2(CC1)CC(C)(C)CO2 [compound 103] | 597.4 nM
CN(CCN)Cc1c[nH]nc1[C@H]1CC[C@@]2(CC1)CC(C)(C)CO2 [compound 105] | 12.12 nM
CN(CCN)Cc1c[nH]nc1[C@H]1CC[C@]2(CC1)CC(C)(C)CO2 [compound 106] | 45.27 nM
CNCCN(C)Cc1c(C)noc1[C@H]1CC[C@]2(CC1)CC(C)(C)CO2 [compound 114] | >10000 nM
